Bridges are numbered along the chain shown (N, C = ends). Primed or numbered codes have the meaning given here. Where no end group is shown, it is not given here. [ ]: non-standard residue; d: D form. PEG4′ = not defined here
Key:
[1] = target: human IgG; assay: Affinity analysis by surface plasmon resonance (BIAcore T200), human IgG immobilized on sensor chip; type: binding; settings: BIAcore T200, HBS-EP buffer pH 7.4, immobilized human IgG
Procedure: The affinity analysis was performed by the following method. First, a solution containing equal amounts of 0.4 M EDC (1-ethyl-3-(3-dimethylaminopropyl)-carbodiimide) and 0.1 M sulfo-NHS (sulfo-N-hydroxysuccinimide)) was injected at a flow rate of […] onto a CMS sensor chip set in BIAcore T200 (GE healthcare), thereby activating the sensor chip. Then, under the condition of pH 5.5 (10 mM Na acetate), human IgG was immobilized onto the sensor chip. For the measurement, HBS-EP buffer (10 mM HEPES, 150 mM NaCl, 0.005% Tween 20, 3 mM EDTA, pH 7.4) was used, and the binding reaction was monitored by injecting 15.6, 31.2, 62.5, 125, 250, 500, and 1000 nM of the purified cross-linked cyclic peptide described above for 180 seconds at a flow rate of […]. For measuring the dissociation reaction, only the buffer was injected for 600 seconds. The analysis of interaction parameters was performed using BIA evaluation T100 software.
In Comparative Example 1, the cross-linked cyclic peptide described in Patent Document 2 was synthesized, and measurement of affinity was performed in the same manner as in Example 1. Synthesis of the peptide and cross-linking reaction were carried out under the following conditions.

[2] = test system: human serum-derived y-globulin; assay: Evaluation of alkali resistance: DBC after washing with 0.1 M sodium hydroxide solution; type: physicochemical; settings: up to ten cycles of 0.1 M sodium hydroxide treatment
Procedure: The DBC measurement was performed using a liquid chromatography instrument AKTAexplore (GE Healthcare). After equilibrating the prepared column with an adsorption solution, 1 mg/mL human serum-derived y-globulin (Sigma-Aldrich) dissolved in the adsorption solution was fed at a flow rate of 1 mL/min. The DBC was determined from the amount of the sample fed until the value of an absorbance at 280 nm excluding the non-adsorbed component reached 10% of the absorbance of the entire sample.
To a 1-mg peptide-immobilized 1-mL column prepared by the same method as in Example 2, 10 mL of 0.1 M sodium hydroxide solution was fed. The column was then washed with 10 mL of an adsorption solution. After washing with the sodium hydroxide solution/adsorption solution for 1, 2, 5, and 10 times, measurement of DBC was performed at a flow rate of 1 mL/min in the same manner as in Example 2. The variation rate of DBC was determined based on the DBC before the sodium hydroxide treatment as 100%. […]

N-terminal PEG4-modified, C-terminal amidated cross-linked cyclic peptide GPDCAYHRGELVWCTFH (SEQ ID NO: 31), two cysteine residues linked as in the formula [Example 1]
Kd [1]: 340 nM | koff [1]: 0.22 s⁻¹ | kon [1]: 650000 M⁻¹ s⁻¹ | decrease in DBC by sodium hydroxide treatment (alkali resistance) [2]: almost no decrease in DBC

PEG4-modified, amidated GPDCAYHRGELVWCTFH peptide of Patent Document 2, cysteine sulfide groups linked via 1,3-dichloro-2-propanone-derived linker ([PEG4′]GPDCAYHRGELVWCTFH-NH2; bridge 5-15; not fully specified (bridges)) [Comparative Example 1, reference compound]
Kd [1]: 4900 nM | koff [1]: 0.005 s⁻¹ | kon [1]: 1000 M⁻¹ s⁻¹
